Experimental data from ChEMBL document CHEMBL1201862, “PubChem BioAssay data set” (2004).
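Protocol summary: plate cells (96-well), add compound at 5 concentrations, incubate 48 h, interpolate endpoints linearly. Abbreviation: GI50, concentration required for 50% inhibition of growth.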 Calls of active or inactive are those of the source. No stated cut-off is given here; in the data, active = GI50 up to about 1.1 µM and inactive = higher.

Columns and labels:
Assay in all cases: NCI tumour cell line growth inhibition, 48 h
[1] = system: Hs-578T
[2] = system: SF-539
[3] = system: NCI-H23
[4] = system: CAKI-1
[5] = system: PC-3
[6] = system: MDA-MB-231
[7] = system: DU-145
[8] = system: OVCAR-4
[9] = system: HCC 2998
[10] = system: LOX IMVI
[11] = system: A498
[12] = system: MDA-MB-435
[13] = system: 786-0
[14] = system: HCT-116
[15] = system: CCRF-CEM
[16] = system: HOP-62
[17] = system: U-251
[18] = system: SNB-19
[19] = system: RPMI-8226
[20] = system: SR

Structure (SMILES) | GI50 [1] | GI50 [2] | GI50 [3] | GI50 [4] | GI50 [5] | GI50 [6] | GI50 [7] | GI50 [8] | GI50 [9] | GI50 [10] | GI50 [11] | GI50 [12] | GI50 [13] | GI50 [14] | GI50 [15] | GI50 [16] | GI50 [17] | GI50 [18] | GI50 [19] | GI50 [20]
OC1[C@@H]2[C@@H](O)[C@H](O)[C@@H](O)N2C[C@@H]1O (stereo partly drawn) | > 100 µM (inactive) | > 100 µM (inactive) | > 100 µM (inactive) | > 100 µM (inactive) | > 100 µM (inactive) | > 100 µM (inactive) | > 100 µM (inactive) | > 100 µM (inactive) | > 100 µM (inactive) | > 100 µM (inactive) | > 100 µM (inactive) | > 100 µM (inactive) | > 100 µM (inactive) | > 100 µM (inactive) | > 100 µM (inactive) | > 100 µM (inactive) | > 100 µM (inactive) | > 100 µM (inactive) | – | –
Cc1n[nH]c(=O)n1/N=C/c1ccc(F)cc1 | – | > 100 µM (inactive) | > 100 µM (inactive) | > 100 µM (inactive) | – | – | > 100 µM (inactive) | > 100 µM (inactive) | > 100 µM (inactive) | – | 90.8 µM (inactive) | > 100 µM (inactive) | > 100 µM (inactive) | > 100 µM (inactive) | > 100 µM (inactive) | > 100 µM (inactive) | – | > 100 µM (inactive) | > 100 µM (inactive) | > 100 µM (inactive)
CCOC(=O)C1=c2[nH]c3cccc4cccc(c43)n2C=C(C(C)=O)C1CC(C)=O (stereo not drawn) | – | – | 69.7 µM (inactive) | 56.6 µM (inactive) | > 100 µM (inactive) | – | > 100 µM (inactive) | > 100 µM (inactive) | 62.7 µM (inactive) | 43.2 µM (inactive) | 86.1 µM (inactive) | 52.6 µM (inactive) | 40.4 µM (inactive) | 34.4 µM (inactive) | 19.9 µM (inactive) | 68.7 µM (inactive) | > 100 µM (inactive) | 55.2 µM (inactive) | > 100 µM (inactive) | > 100 µM (inactive)
CC1CC[C@@H](C(C)C)[C@H](Oc2nnc(C3OC(CO)C(O)C3O)o2)C1 (stereo partly drawn) | – | > 100 µM (inactive) | > 100 µM (inactive) | > 100 µM (inactive) | > 100 µM (inactive) | > 100 µM (inactive) | > 100 µM (inactive) | > 100 µM (inactive) | > 100 µM (inactive) | > 100 µM (inactive) | > 100 µM (inactive) | > 100 µM (inactive) | > 100 µM (inactive) | > 100 µM (inactive) | > 100 µM (inactive) | > 100 µM (inactive) | > 100 µM (inactive) | > 100 µM (inactive) | > 100 µM (inactive) | –
COC(=O)C(=O)c1cc2ccccc2n1S(=O)(=O)c1ccccc1 | – | > 100 µM (inactive) | > 100 µM (inactive) | > 100 µM (inactive) | > 100 µM (inactive) | > 100 µM (inactive) | > 100 µM (inactive) | > 100 µM (inactive) | > 100 µM (inactive) | > 100 µM (inactive) | > 100 µM (inactive) | > 100 µM (inactive) | > 100 µM (inactive) | > 100 µM (inactive) | > 100 µM (inactive) | > 100 µM (inactive) | > 100 µM (inactive) | > 100 µM (inactive) | – | > 100 µM (inactive)
COC(=O)c1sc2ncc3c(c2c1N)CCCCCC3 | – | > 100 µM (inactive) | > 100 µM (inactive) | > 100 µM (inactive) | > 100 µM (inactive) | > 100 µM (inactive) | > 100 µM (inactive) | > 100 µM (inactive) | > 100 µM (inactive) | > 100 µM (inactive) | > 100 µM (inactive) | > 100 µM (inactive) | > 100 µM (inactive) | > 100 µM (inactive) | > 100 µM (inactive) | 53.6 µM (inactive) | > 100 µM (inactive) | > 100 µM (inactive) | > 100 µM (inactive) | > 100 µM (inactive)
O=C(c1ccc(Cl)cc1)c1ccc(OCC(=O)N2CCN(c3ccccc3)CC2)cc1 | – | > 100 µM (inactive) | 53.7 µM (inactive) | > 100 µM (inactive) | – | – | – | > 100 µM (inactive) | > 100 µM (inactive) | > 100 µM (inactive) | 32.1 µM (inactive) | – | > 100 µM (inactive) | > 100 µM (inactive) | > 100 µM (inactive) | > 100 µM (inactive) | > 100 µM (inactive) | > 100 µM (inactive) | > 100 µM (inactive) | 84.5 µM (inactive)
COC(=O)c1c(C)[nH]c2c1C(=O)C(=O)c1nc(C)c(C)nc1-2 | 5.85 µM (inactive) | 10.4 µM (inactive) | 10.2 µM (inactive) | 6.75 µM (inactive) | 7.53 µM (inactive) | – | 6.04 µM (inactive) | 12.9 µM (inactive) | 8.85 µM (inactive) | 5.79 µM (inactive) | 2.92 µM (inactive) | 10.7 µM (inactive) | 10.4 µM (inactive) | 4.28 µM (inactive) | 5.04 µM (inactive) | 5.98 µM (inactive) | 4.84 µM (inactive) | 4.76 µM (inactive) | 10.2 µM (inactive) | 5.33 µM (inactive)
Cc1ccc(Cc2nn(C)c(=O)n2N)cc1 | – | > 100 µM (inactive) | > 100 µM (inactive) | > 100 µM (inactive) | > 100 µM (inactive) | > 100 µM (inactive) | > 100 µM (inactive) | > 100 µM (inactive) | > 100 µM (inactive) | > 100 µM (inactive) | > 100 µM (inactive) | > 100 µM (inactive) | > 100 µM (inactive) | > 100 µM (inactive) | – | – | > 100 µM (inactive) | > 100 µM (inactive) | > 100 µM (inactive) | –
N#Cc1c(-c2cccc(Br)c2)cc(-c2ccc(Cl)cc2)nc1N | 19.1 µM (inactive) | 18.1 µM (inactive) | 25 µM (inactive) | 25.6 µM (inactive) | 22.2 µM (inactive) | – | 46 µM (inactive) | 0.514 µM (active) | 17.3 µM (inactive) | 15.8 µM (inactive) | – | 18.2 µM (inactive) | 20.3 µM (inactive) | 16.1 µM (inactive) | 27.2 µM (inactive) | 23.5 µM (inactive) | 16.4 µM (inactive) | 18.7 µM (inactive) | 17 µM (inactive) | 19.1 µM (inactive)
CN(/N=C/c1ccc(C(=O)O)cc1)C1=NCCCCN1 | – | > 100 µM (inactive) | > 100 µM (inactive) | > 100 µM (inactive) | > 100 µM (inactive) | > 100 µM (inactive) | > 100 µM (inactive) | > 100 µM (inactive) | > 100 µM (inactive) | > 100 µM (inactive) | > 100 µM (inactive) | > 100 µM (inactive) | > 100 µM (inactive) | > 100 µM (inactive) | > 100 µM (inactive) | > 100 µM (inactive) | > 100 µM (inactive) | > 100 µM (inactive) | > 100 µM (inactive) | > 100 µM (inactive)
CCCCCCCN1C(=O)C(O)(c2ccc(C3(O)C(=O)N(CCCCCCC)c4ccccc43)s2)c2ccccc21 (stereo not drawn) | 2.79 µM (inactive) | 1.79 µM (inactive) | – | – | 1.97 µM (inactive) | 2.19 µM (inactive) | 1.65 µM (inactive) | 2.01 µM (inactive) | 1.87 µM (inactive) | 1.96 µM (inactive) | – | 2.05 µM (inactive) | 1.91 µM (inactive) | 1.73 µM (inactive) | 3.87 µM (inactive) | 1.77 µM (inactive) | 1.74 µM (inactive) | 2.81 µM (inactive) | 2.04 µM (inactive) | 4.83 µM (inactive)
Fc1ccc(Oc2nc3ccc(C(F)(F)F)cc3nc2-c2ccccc2)cc1 | 28.2 µM (inactive) | 30.8 µM (inactive) | 77.3 µM (inactive) | 27.9 µM (inactive) | > 100 µM (inactive) | > 100 µM (inactive) | > 100 µM (inactive) | 60.5 µM (inactive) | 14.5 µM (inactive) | > 100 µM (inactive) | – | 76.2 µM (inactive) | 61.7 µM (inactive) | 85.1 µM (inactive) | > 10 µM (inactive) | 24.4 µM (inactive) | – | 87.9 µM (inactive) | – | 24.3 µM (inactive)
CCOC1NC(=O)Oc2cc3ccccc3cc21 (stereo not drawn) | > 100 µM (inactive) | 68.1 µM (inactive) | > 100 µM (inactive) | – | 29 µM (inactive) | > 100 µM (inactive) | > 100 µM (inactive) | > 100 µM (inactive) | > 100 µM (inactive) | 67.1 µM (inactive) | – | > 100 µM (inactive) | > 100 µM (inactive) | 35 µM (inactive) | 36.5 µM (inactive) | > 100 µM (inactive) | 36.1 µM (inactive) | 64.3 µM (inactive) | 95.9 µM (inactive) | 48.5 µM (inactive)
O=C1CCCCC/C1=C\c1cccc(F)c1 | – | > 100 µM (inactive) | – | 65.9 µM (inactive) | > 100 µM (inactive) | > 100 µM (inactive) | > 100 µM (inactive) | – | 59.8 µM (inactive) | – | > 100 µM (inactive) | 55.2 µM (inactive) | > 100 µM (inactive) | 54.6 µM (inactive) | 24.3 µM (inactive) | > 100 µM (inactive) | 48.1 µM (inactive) | > 100 µM (inactive) | 19.8 µM (inactive) | 13.5 µM (inactive)
Cc1occc1/C(S)=N\c1ccc(Cl)c(C(=O)OCC2CC2)c1 | 46.9 µM (inactive) | 51.6 µM (inactive) | 58.6 µM (inactive) | 5.81 µM (inactive) | 30.4 µM (inactive) | 37.8 µM (inactive) | 73.3 µM (inactive) | 32 µM (inactive) | 26.7 µM (inactive) | 29.2 µM (inactive) | 35.8 µM (inactive) | 75.3 µM (inactive) | 44.9 µM (inactive) | 43.9 µM (inactive) | 20.7 µM (inactive) | – | 95.3 µM (inactive) | 54.2 µM (inactive) | 23.1 µM (inactive) | –
